Measured values: PubChem BioAssay (NCI)
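Growth conditions: 96-well plates. Treatment: test compound, 48 hours, 5 concentrations. Analysis: linear interpolation between bracketing concentrations; unreached endpoints set to highest concentration. The concentration for 50% growth inhibition is given as GI50. TGI marks complete inhibition of growth.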

Key:
Experiment in all cases: NCI anticancer screen, dose series, 48 h
[1] = test system: COLO 205 colon
[2] = test system: KM12 colon
[3] = test system: HOP-62 NSCLC
[4] = test system: MCF7 breast
[5] = test system: SR leukemia
[6] = test system: NCI/ADR-RES ovarian
[7] = test system: PC-3 prostate
[8] = test system: UO-31 renal
[9] = test system: MOLT-4 leukemia
[10] = test system: A549 NSCLC

SMILES: CCN1C(=NCCO)NS(=O)(=O)c2ccccc21
- TGI [1]: > 100 µM
- TGI [2]: > 100 µM
- TGI [3]: > 100 µM
- TGI [4]: > 100 µM
- TGI [5]: > 100 µM
- TGI [6]: > 100 µM
- TGI [7]: > 100 µM
- TGI [8]: > 100 µM
- TGI [9]: > 100 µM
- TGI [10]: > 100 µM

SMILES: CCOc1ccc2c(c1)c(CC(=O)O)cn2C
- TGI [1]: > 100 µM
- TGI [2]: > 100 µM
- TGI [3]: > 100 µM
- TGI [4]: > 100 µM
- TGI [5]: > 100 µM
- TGI [6]: > 100 µM
- TGI [7]: > 100 µM
- TGI [8]: > 100 µM
- TGI [9]: > 100 µM
- TGI [10]: > 100 µM

SMILES: CN(CCCCCl)P(=O)(OCc1ccc([N+](=O)[O-])o1)OCC1OC(n2cnc([N+](=O)[O-])c2N)C(O)C1O (stereo not given)
- GI50 [1]: > 100 µM
- TGI [1]: > 100 µM
- GI50 [2]: 90.7 µM
- TGI [2]: > 100 µM
- GI50 [3]: > 100 µM
- TGI [3]: > 100 µM
- GI50 [4]: 54.8 µM
- TGI [4]: > 100 µM
- GI50 [5]: 0.924 µM
- TGI [5]: > 100 µM
- GI50 [6]: > 100 µM
- TGI [6]: > 100 µM
- GI50 [7]: > 100 µM
- TGI [7]: > 100 µM
- GI50 [8]: > 100 µM
- TGI [8]: > 100 µM
- GI50 [9]: > 100 µM
- TGI [9]: > 100 µM
- GI50 [10]: > 100 µM
- TGI [10]: > 100 µM

SMILES: Cc1ccc(C2NC(=O)c3ccccc3N2)c(C)c1 (stereo not given)
- TGI [1]: 14.2 µM
- TGI [2]: > 100 µM
- TGI [3]: > 100 µM
- TGI [4]: 8.34 µM
- TGI [5]: > 71.8 µM
- TGI [6]: 6.5 µM
- TGI [7]: > 40.2 µM
- TGI [8]: > 100 µM
- TGI [9]: > 100 µM
- TGI [10]: > 100 µM

SMILES: CN(C)c1cccc(F)c1C(=O)NC(=O)Nc1ccc(Cl)cc1
- TGI [1]: > 100 µM
- TGI [2]: > 100 µM
- TGI [3]: > 100 µM
- TGI [4]: > 100 µM
- TGI [5]: > 100 µM
- TGI [6]: > 44.4 µM
- TGI [7]: > 100 µM
- TGI [8]: > 100 µM
- TGI [9]: > 100 µM
- TGI [10]: > 100 µM

SMILES: COCCOCCOCc1n(Cc2ccc3ccccc3n2)c2ccccc2[n+]1Cc1ccc2ccccc2n1
- GI50 [1]: 0.284 µM
- TGI [1]: 1.5 µM
- GI50 [2]: 0.502 µM
- TGI [2]: 6.13 µM
- GI50 [3]: 2.44 µM
- TGI [3]: 14.3 µM
- GI50 [4]: 0.369 µM
- TGI [4]: 11.1 µM
- GI50 [5]: 0.663 µM
- TGI [5]: 11.8 µM
- GI50 [6]: > 100 µM
- TGI [6]: > 100 µM
- GI50 [7]: 0.591 µM
- TGI [7]: 11.7 µM
- GI50 [8]: 12.1 µM
- TGI [8]: 36.2 µM
- GI50 [9]: 1.88 µM
- TGI [9]: 13 µM
- GI50 [10]: 3.21 µM
- TGI [10]: 69.5 µM
